Literature values in patent US7585978B2, “Processes of manufacturing substituted-1,4-dihydropyridines, improved aqueous solutions thereof, and processes of manufacturing the solutions” (Navinta LLC, priority 2006, dated 2009).
Entries after “also recorded” stand apart in the source; their conditions may differ. Counter-ions that a name gives are not always drawn.

Key:
[1] = hydrochloride

pKa (first of three pKa values)	pKa (second of three pKa values)	SMILES	solubility in water [1]
2.18	9.09	N=C(N)NCCC[C@H](N)C(=O)O [L-arginine]	
		COC(=O)C1=C(C)NC(C)=C(C(=O)OCCN(C)Cc2ccccc2)C1c1cccc([N+](=O)[O-])c1 (stereo not drawn) [nicardipine hydrochloride]	poorly soluble in water; also recorded: very poorly soluble in water
